Assays:
Type in all cases: cell-based
[1] = tested on: AR-expressing (AR-positive) prostate cancer cell lines; experiment: MTT cell viability assay, AR-positive cells; conditions: growth inhibition grade, 6 days
Method: (§1) FIGS. 3A-Q. Growth inhibitory effects of selected compounds. The indicated cells were exposed to the indicated compounds for 6 days; cell viability was measured by MTT assay, and specific reporters were assayed using literature conditions. Results were normalized to that of vehicle control. Experiments were performed in quadruplicate; results are means±s.d.
(§2) JN053 and JN138-JN156 were synthesized and tested in biochemical and cell biologic assays that have been described elsewhere. The JN compounds were first studied in cell viability assays (MTT assay) to determine the efficacy and specificity of the JN compounds for inhibition of prostate cancer cell lines.
(§3) The growth inhibitory effect of the JN compounds was assessed through the MTT assay, which assesses the total number of viable cells in vitro. These experiments were performed in AR-expressing (AR-positive) prostate cancer cell lines to assess on target effects and AR-null (AR-negative) prostate cancer cell lines to assess off target effects (i.e. specificity).
AR-expressing (AR-pos): • LNCaP: full length AR • LNCaP AR: overexpression of full length AR • 22Rv1: full length AR and ARV7 • VCaP: full length AR and ARV7 • CWR22: full length AR and ARV7

[2] = tested on: AR-null (AR-negative) prostate cancer cell lines; experiment: MTT cell viability assay, AR-negative cells; conditions: growth inhibition grade, 6 days
Method: as §1, §2, §3

[3] = tested on: CREB transactivation domain; experiment: CREB-TAD-luciferase reporter assay; conditions: inhibition grade
Method: (§4) The biochemical assays include reporter assays to determine the activity and specificity of these JN compounds to inhibit the transcriptional activity of the androgen receptor (AR). The reporter assays were conducted in various cell lines that either endogenously or exogenously express the full-length AR and ARV7, a constitutively active splice variant that is resistant to all clinically available AR targeting compounds. The reporter assays were performed in replicates and across a wide range of concentrations (generally […]).
(§5) The reporter systems utilized include: • MMTV-luciferase: AR-dependent • ARE-luciferase: AR-dependent • GRE-luciferase: glucocorticoid receptor (GR)-dependent • CRE-luciferase: CREB-dependent • AP1-luciferase: AP1 (jun and fos family)-dependent: • AR-TAD-luciferase: dependent on AR transactivation domain • CREB-TAD-luciferase: dependent on CREB transactivation domain • JUN-TAD-luciferase: dependent on c-Jun transactivation domain

[4] = molecular target: AR transactivation domain (Homo sapiens, UniProt P10275); experiment: AR-TAD-luciferase reporter assay; conditions: inhibition grade
Method: (§6) The biochemical assays include reporter assays to determine the activity and specificity of these JN compounds to inhibit the transcriptional activity of the androgen receptor (AR). […] The reporter assays were performed in replicates and across a wide range of concentrations (generally […]).
as §5

androgen receptor (AR) = molecular target: T1, androgen receptor (AR) (Homo sapiens, UniProt P10275); experiment: MMTV-luciferase reporter assay (AR-dependent); conditions: inhibition grade
T1 construct: either endogenously or exogenously express the full-length AR and ARV7
Method: as §6, §5

[5] = molecular target: glucocorticoid receptor (GR) (Homo sapiens, UniProt P04150); experiment: GRE-luciferase reporter assay; conditions: GR-dependent, inhibition grade
Method: as §4, §5

[6] = tested on: 22Rv1 (full-length and splice variant AR); experiment: Colony formation assay, 22Rv1; conditions: 22Rv1, 2-10 μm, two weeks
Method: (§7) DU145, PC3LNCaP-AR (full-length AR), 22Rv1 (full-length and splice variant AR), and VCaP cells (400 cells/well of 6-well plate) were treated with indicated 0 (pure DMSO), 2, 4, 6, 8, 10 μm of JN103 for two weeks. Colonies were visualized with methylene blue staining.

full-length AR and AR-V7 = experiment: Western blot protein degradation with cycloheximide, LNCaP-95 cells; conditions: endogenously expressed
Method: (§8) LNCaP-AR cells were treated with JN103 and cycloheximide (to inhibit translation) at the indicated doses and times (FIG. 11A). Cell protein was subjected to Western blotting for the indicated proteins. The same tests were performed on LNCaP-95 cells, HEK-293 cells engineered to ectopically express ARΔ567, PC3 cells, and T47D breast cancer cells.

[7] = tested on: LNCaP-AR (full-length AR); experiment: Colony formation assay, LNCaP-AR; conditions: 2-10 μm, two weeks
Method: as §7

[8] = tested on: AR transcriptional program; experiment: Whole transcriptomic RNA-sequencing, gene set expression analysis; conditions: LNCaP-AR and 22Rv1 cells, 10 μM, 8 hours
Method: Negative enrichment scores (NES are shown for the AR transcriptional program.
Whole transcriptomic RNA-sequencing was performed for two castration resistant cell lines (LNCaP-AR and 22Rv1), which were exposed to JN103 (10 μM) for 8 hours. The experimental results as determined by gene set expression analysis (FIG. 10) show negative enrichment scores (NES) for the AR transcriptional program.

[9] = molecular target: T2, full-length AR overexpressed in LNCaP-AR cells (Homo sapiens, UniProt P10275); experiment: Western blot protein degradation with cycloheximide, LNCaP-AR cells
T2 construct: the full-length AR overexpressed in LNCaP-AR cells; expressed in transfected cells; host or cells: LNCaP-AR cells
Method: as §8

ARΔ567 = molecular target: T3, ARΔ567 (Homo sapiens, UniProt P10275); experiment: Western blot protein degradation with cycloheximide, HEK-293 cells; conditions: ectopically expressed
T3 construct: expressed in transfected cells; host or cells: HEK-293 cells
Method: as §8

PC3 cell = experiment: Colony formation assay, PC3; conditions: PC3, at high concentrations, two weeks
Method: as §7

AR-null DU145 cells = experiment: Colony formation assay, DU145; conditions: DU145, 2-10 μm, two weeks
Method: as §7

[10] = tested on: VCaP (full-length and splice variant AR); experiment: Colony formation assay, VCaP; conditions: 2-10 μm, two weeks
Method: as §7

ER or PR = experiment: Western blot protein degradation, T47D breast cancer cells, ER and PR; conditions: breast cancer cell line that co-expresses AR
Method: as §8

actin or the GR = experiment: Western blot protein degradation, other proteins; conditions: FIGS. 11(A)-11(D)
Method: as §8

AR = molecular target: T4, AR (Homo sapiens, UniProt P10275); experiment: Western blot protein degradation, T47D breast cancer cells, AR; conditions: breast cancer cell line that co-expresses AR, ER, and PR (T47D)
T4 construct: a breast cancer cell line that co-expresses AR, ER, and PR; endogenous in cells; host or cells: T47D breast cancer cells
Method: as §8

[11] = tested on: breast cancer cell line (T47D); experiment: MTT assay on non-prostate cancer cell lines; conditions: 2-8 μm, 5 days
Method: The growth-inhibitory effects of JN103 were also assessed in MTT assays on 20 non-prostate cancer cell lines. (FIG. 13). Cells were exposed to 0 (pure DMSO), 2, 4, 6, and 8 μm of JN103 for 5 days and subjected to MTT assay to determine cell viability. Results are means of quadruplicates.

T1 sequence (P10275 whole entry): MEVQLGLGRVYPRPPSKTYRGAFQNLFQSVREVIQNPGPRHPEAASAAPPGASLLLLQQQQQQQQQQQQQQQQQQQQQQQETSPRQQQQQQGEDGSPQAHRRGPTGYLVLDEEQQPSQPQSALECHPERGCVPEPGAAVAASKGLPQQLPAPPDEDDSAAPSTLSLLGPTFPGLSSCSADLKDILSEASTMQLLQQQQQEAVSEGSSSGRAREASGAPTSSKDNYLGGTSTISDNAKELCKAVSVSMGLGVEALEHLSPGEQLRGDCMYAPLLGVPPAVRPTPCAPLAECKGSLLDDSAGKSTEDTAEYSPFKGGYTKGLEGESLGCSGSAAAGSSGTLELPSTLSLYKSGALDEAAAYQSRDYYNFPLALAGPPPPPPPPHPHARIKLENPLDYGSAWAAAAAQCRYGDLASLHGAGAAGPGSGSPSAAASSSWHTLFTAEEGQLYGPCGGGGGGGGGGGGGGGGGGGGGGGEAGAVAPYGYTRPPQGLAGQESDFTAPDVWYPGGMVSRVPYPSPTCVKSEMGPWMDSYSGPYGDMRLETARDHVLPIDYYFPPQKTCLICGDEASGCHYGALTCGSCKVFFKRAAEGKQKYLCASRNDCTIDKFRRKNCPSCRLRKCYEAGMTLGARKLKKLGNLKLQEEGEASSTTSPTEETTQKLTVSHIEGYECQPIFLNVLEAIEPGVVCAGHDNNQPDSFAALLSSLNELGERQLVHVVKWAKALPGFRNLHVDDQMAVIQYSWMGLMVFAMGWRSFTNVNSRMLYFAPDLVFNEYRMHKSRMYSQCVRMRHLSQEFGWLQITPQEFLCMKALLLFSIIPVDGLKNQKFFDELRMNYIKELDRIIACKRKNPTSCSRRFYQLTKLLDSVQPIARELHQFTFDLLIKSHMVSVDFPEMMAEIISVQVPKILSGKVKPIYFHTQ
T3 sequence (P10275 with tags, fused parts or gaps limits assumed): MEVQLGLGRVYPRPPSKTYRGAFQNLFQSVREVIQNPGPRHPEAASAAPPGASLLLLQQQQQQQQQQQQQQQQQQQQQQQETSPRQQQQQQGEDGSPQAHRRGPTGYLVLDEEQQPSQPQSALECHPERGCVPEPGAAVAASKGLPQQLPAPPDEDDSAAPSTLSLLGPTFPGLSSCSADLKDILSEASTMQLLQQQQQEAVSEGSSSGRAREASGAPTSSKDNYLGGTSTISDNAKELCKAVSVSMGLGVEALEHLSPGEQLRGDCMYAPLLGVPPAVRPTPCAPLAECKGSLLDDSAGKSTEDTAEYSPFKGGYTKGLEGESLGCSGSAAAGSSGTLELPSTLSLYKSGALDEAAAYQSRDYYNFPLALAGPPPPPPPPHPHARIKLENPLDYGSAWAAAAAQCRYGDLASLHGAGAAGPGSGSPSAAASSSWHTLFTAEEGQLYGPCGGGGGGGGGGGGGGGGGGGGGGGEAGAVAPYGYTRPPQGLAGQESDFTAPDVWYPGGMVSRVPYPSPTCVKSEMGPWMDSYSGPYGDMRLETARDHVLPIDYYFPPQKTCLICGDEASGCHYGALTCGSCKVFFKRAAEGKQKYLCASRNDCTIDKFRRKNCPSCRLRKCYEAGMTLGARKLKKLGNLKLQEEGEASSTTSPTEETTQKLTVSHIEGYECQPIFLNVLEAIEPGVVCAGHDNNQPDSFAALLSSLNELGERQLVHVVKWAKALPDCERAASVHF
Chain of AR transactivation domain (P10275 1-559 limits assumed): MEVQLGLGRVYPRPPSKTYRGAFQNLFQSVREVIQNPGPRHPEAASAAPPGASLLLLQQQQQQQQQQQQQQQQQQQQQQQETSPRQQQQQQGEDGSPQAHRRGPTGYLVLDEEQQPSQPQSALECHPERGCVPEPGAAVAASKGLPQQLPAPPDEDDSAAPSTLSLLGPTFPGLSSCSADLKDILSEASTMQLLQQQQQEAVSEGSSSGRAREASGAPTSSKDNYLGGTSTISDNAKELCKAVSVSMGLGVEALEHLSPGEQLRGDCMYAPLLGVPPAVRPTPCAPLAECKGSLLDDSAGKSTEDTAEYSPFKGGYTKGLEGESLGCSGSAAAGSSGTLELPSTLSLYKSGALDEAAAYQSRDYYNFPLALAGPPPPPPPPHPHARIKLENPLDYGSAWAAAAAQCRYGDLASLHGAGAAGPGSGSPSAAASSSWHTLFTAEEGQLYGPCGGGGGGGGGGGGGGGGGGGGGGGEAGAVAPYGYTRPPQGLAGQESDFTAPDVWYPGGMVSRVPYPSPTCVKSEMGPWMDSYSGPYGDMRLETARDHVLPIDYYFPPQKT
T2 sequence (P10275 whole entry): as the sequence (P10275 whole entry) above
Chain of glucocorticoid receptor (GR) (P04150 whole entry, species assumed): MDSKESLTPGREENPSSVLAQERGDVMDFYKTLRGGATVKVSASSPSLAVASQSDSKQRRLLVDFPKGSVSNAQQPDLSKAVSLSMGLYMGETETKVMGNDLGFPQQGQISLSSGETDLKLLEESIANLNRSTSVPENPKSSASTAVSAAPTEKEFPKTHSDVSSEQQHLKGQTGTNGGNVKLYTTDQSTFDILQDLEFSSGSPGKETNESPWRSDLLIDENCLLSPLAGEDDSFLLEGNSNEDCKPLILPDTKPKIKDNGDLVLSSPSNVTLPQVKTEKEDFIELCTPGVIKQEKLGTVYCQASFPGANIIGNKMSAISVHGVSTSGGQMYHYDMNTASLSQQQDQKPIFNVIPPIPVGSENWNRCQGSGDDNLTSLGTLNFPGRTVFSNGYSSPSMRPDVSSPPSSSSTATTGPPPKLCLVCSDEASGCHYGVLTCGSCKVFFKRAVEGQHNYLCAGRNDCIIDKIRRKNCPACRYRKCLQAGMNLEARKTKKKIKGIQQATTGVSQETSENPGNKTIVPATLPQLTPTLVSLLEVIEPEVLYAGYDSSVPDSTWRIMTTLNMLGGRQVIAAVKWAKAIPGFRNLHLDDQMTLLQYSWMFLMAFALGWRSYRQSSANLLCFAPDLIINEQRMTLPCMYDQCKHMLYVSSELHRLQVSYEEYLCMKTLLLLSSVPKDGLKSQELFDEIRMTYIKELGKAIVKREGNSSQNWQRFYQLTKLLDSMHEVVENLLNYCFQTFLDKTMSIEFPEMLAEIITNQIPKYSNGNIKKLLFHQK

| Structure (SMILES) | MTT AR-Pos [1] | MTT AR Neg [2] | also measured |
| --- | --- | --- | --- |
| O=C1CCCN1C(=O)/C(=C/c1ccc(Cl)cc1)c1ccccc1 [JN141] | LOW | LOW |  |
| C=C(C)C(=O)OCCOC(=O)/C(=C/c1ccc(Cl)cc1)c1ccc(F)cc1F [JN151] | LOW | LOW |  |
| C=C(C)C(=O)NC(=O)/C(=C/c1ccc(C(F)(F)F)nc1)c1ccccc1 [JN153] | HIGH | HIGH |  |
| O=C(C1=CCN(Cc2ccccc2)CC1)/C(=C/c1ccc(Cl)cc1)c1ccccc1 [JN142, (E)-1-(1-Benzyl-1,2,3,6-tetrahydropyridin-4-yl)-3-(4-chlorophenyl)-2-phenylprop-2-en-1-one] | LOW | LOW |  |
| O=C(NC(=O)C1CC1)/C(=C/c1ccc(Cl)cc1)c1ccc(F)cc1F [JN147, (E)-N-(3-(4-Chlorophenyl)-2-(2,4-difluorophenyl)acryloyl)cyclopropanecarboxamide] | LOW | LOW |  |
| O=C(/C=C/c1ccccc1)NC(=O)/C(=C/c1ccc(Cl)cc1)c1ccc(F)cc1F [JN155] | LOW | LOW |  |
| C=C(Cc1ccccc1)C(=O)NC(=O)/C(=C/c1ccc(Cl)cc1)c1ccc(F)cc1F [JN150] | HIGH | HIGH |  |
| CCC1=C(C)CN(C(=O)/C(=C/c2ccc(Cl)cc2)c2ccccc2)C1=O [JN140, (E)-1-(3-(4-Chlorophenyl)-2-phenylacryloyl)-3-ethyl-4-methyl-1,5-dihydro-2H-pyrrol-2-one] | HIGH | HIGH |  |
| C=C1CN=C(/C(=C/c2ccc(Cl)cc2)c2ccc(F)cc2F)O1 [JN149, (E)-2-(2-(4-Chlorophenyl)-1-(2,4-difluorophenyl)vinyl)-5-methylene-4,5-dihydrooxazole] | LOW | LOW |  |
| C=C(C)C(=O)NC(=O)/C(=C/c1ccc(Cl)cc1)c1ccc(C(F)(F)F)cc1 [JN152] | HIGH | LOW | CREB-TAD [3]: HIGH; AR-TAD [4]: HIGH; MMTV (androgen receptor (AR)): HIGH; GRE [5]: HIGH |
| N#CC1(NC(=O)/C(=C/c2ccc(Cl)cc2)c2ccc(F)cc2F)CC1 [JN146] | LOW | LOW |  |
| C#CCNC(=O)/C(=C/c1ccc(Cl)cc1)c1ccc(F)cc1F [JN144, (E)-3-(4-Chlorophenyl)-2-(2,4-difluorophenyl)-N-(prop-2-yn-1-yl)acrylamide] | LOW | LOW |  |
| C=C(C)C(=O)NCCCNC(=O)/C(=C/c1ccc(Cl)cc1)c1ccc(F)cc1F [JN156, (E)-3-(4-Chlorophenyl)-2-(2,4-difluorophenyl)-N-(3-methacrylamidopropyl)acrylamide] | LOW | LOW |  |
| C=CC(=O)NC(=O)/C(=C/c1ccc(Cl)cc1)c1ccc(F)cc1 [JN139] | LOW | LOW |  |
| C=C(C)C(=O)NC(=O)/C(=C/c1ccc(Cl)cc1)c1ccc(F)cc1 [JN103, (E)-3-(4-Chlorophenyl)-2-(4-fluorophenyl)-N-methacryloylacrylamide] |  |  | colony formation [6]: inhibits the growth; degradation of full-length AR and AR-V7 (full-length AR and AR-V7): potently induces time- and dose-dependent degradation; colony formation [7]: inhibits the growth; AR gene signature (gene set expression analysis) [8]: marked decrease in the AR gene signature; degradation of full-length AR [9]: potently induces time- and dose-dependent degradation; degradation of ARΔ567 (ARΔ567): potently induces time- and dose-dependent degradation; colony formation (PC3 cell): only mild effects; colony formation (AR-null DU145 cells): limited impact on colony formation; colony formation [10]: inhibits the growth; degradation of the ER or PR (ER or PR): not the ER or PR; degradation of other proteins, including actin or the GR (actin or the GR): does not affect the degradation; degradation of the AR (AR): induces degradation of the AR; growth inhibition (MTT cell viability) [11]: significant growth inhibition |
| NS(=O)(=O)NC(=O)/C(=C/c1ccc(Cl)cc1)c1ccc(F)cc1F [JN145, (E)-3-(4-Chlorophenyl)-2-(2,4-difluorophenyl)-N-sulfamoylacrylamide] | LOW | LOW |  |
| O=C(/C=C/C(F)(F)F)NC(=O)/C(=C/c1ccc(Cl)cc1)c1ccc(F)cc1F [JN154] | HIGH | LOW |  |
| COC1=CC(=O)N(C(=O)/C(=C/c2ccc(Cl)cc2)c2ccc(F)cc2F)C1 [JN143] | LOW | LOW |  |
| Cc1cnc(/C(=C/c2ccc(Cl)cc2)c2ccc(F)cc2F)o1 [JN148, (E)-2-(2-(4-Chlorophenyl)-1-(2,4-difluorophenyl)vinyl)-5-methyloxazole] | LOW | LOW |  |
| C=C1CC(c2ccc(OC)cc2)=C(c2ccccc2)C1=O [JN053] | LOW | LOW | MMTV (androgen receptor (AR)): MED |

Source: patent US20220177418A1, “INHIBITORS OF THE N-TERMINAL DOMAIN OF THE ANDROGEN RECEPTOR” (The Regents of the University of California, priority 2019, published 2022)
